# Assay results: US20100234417A1, “THYROTROPIN RELEASING HORMONE RECEPTOR-OREXIN RECEPTOR HETERO-DIMERS/-OLIGOMERS” (DIMERIX BIOSCIENCE PTY LTD., priority 2006, published 2010)
# Ends that are not written are not given here.
# Biological target: T1, thyrotropin releasing hormone receptor (TRHR) (Rattus norvegicus, UniProt Q01717)
# T1 construct: expressed in transfected cells; host or cells: HEK293 (HEK293FT)
# T1 sequence (Q01717 1-412): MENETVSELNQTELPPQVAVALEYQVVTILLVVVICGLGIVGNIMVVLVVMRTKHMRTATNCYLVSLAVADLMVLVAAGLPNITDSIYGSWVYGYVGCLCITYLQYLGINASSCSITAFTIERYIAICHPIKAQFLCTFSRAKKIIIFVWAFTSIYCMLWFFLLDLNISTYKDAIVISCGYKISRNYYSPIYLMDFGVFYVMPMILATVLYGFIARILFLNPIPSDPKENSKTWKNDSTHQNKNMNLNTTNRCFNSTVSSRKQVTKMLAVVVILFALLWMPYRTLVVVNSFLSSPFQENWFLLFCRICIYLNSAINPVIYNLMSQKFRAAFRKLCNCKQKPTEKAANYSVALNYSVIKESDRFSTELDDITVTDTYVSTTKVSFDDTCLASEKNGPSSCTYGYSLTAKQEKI
# Test: eBRET/BRET beta-arrestin recruitment to TRHR/Rluc without IG3 (pcDNA3) in HEK293 cells
# Assay type: cell-based
# Excerpt: Briefly, referring to FIGS. 1 to 3, the IGs are provided in the form of the two receptors (TRHR and OxR). One of the two is attached to an RC (IG1-RC1, IG3). A second IG (IG2-RC2) is derived from a molecule that interacts with the receptors upon ligand binding (e.g. beta-arrestin, or a mutant thereof). The detection system not only detects the formation of the TRHR-OxR heterodimer but can distinguish whether a ligand or drug acts as an agonist, partial agonist, antagonist, inverse agonist or partial inverse agonist at the receptor hetero-dimer.
# Cells were seeded in 6-well plates at a density of approximately 630,000 cells/well (HEK293FT) or approximately 150,000 cells/well (COS-7) and maintained at 37° C., 5% CO2 in Complete Media (DMEM containing 0.3 mg/ml glutamine, 100 IU/ml penicillin and 100 μg/ml streptomycin (Gibco)) supplemented with 10% fetal calf serum (FCS; Gibco). Transient transfections were carried out 24 h after seeding using GeneJuice (Novagen) or Metafectene (Biontex) according to manufacturer instructions. 24 h post-transfection, cells were washed with PBS, detached using 0.05% trypsin/0.53 mM EDTA, resuspended in HEPES-buffered phenol red free Complete Media containing 5% FCS and added to a poly-L-lysine-coated white microplate (Nunc). 48 h post-transfection, eBRET assays were carried out following pre-incubation of cells with EnduRen™ (Promega) at a final concentration of 30-40 μM, at 37° C., 5% CO2 for 2 h. For original BRET studies, the HEPES-buffered phenol red free Complete Media was replaced with PBS and coelenterazine h (Molecular Probes) added to a final concentration of 5 μM immediately prior to commencing the assay. BRET measurements were taken at 37° C. using the Victor Light plate reader with Wallac 1420 software (Perkin-Elmer). Filtered light emissions were sequentially measured for 3-5 s in each of the ‘donor wavelength window’ (400-475 nm) and ‘acceptor wavelength window’ (>500 nm for EGFP or 520-540 nm for EYFP, Topaz (TYFP) or Venus). The BRET signal observed between interacting proteins is normalized by subtracting the background BRET ratio. This can be done in one of two ways (see Pfleger et al. (2006) Cell Signal 18, 1664-1670; Pfleger et al. (2006) Nat Protoc 1, 336-344): 1) the ratio of light emission through the acceptor wavelength window over the 400-475 nm emission for a cell sample containing only the donor construct is subtracted from the same ratio for a sample containing the interacting acceptor and donor fusion proteins; 2) the ratio of light emission through the ‘acceptor wavelength window’ over the 400-475 nm emission for a cell sample treated with vehicle is subtracted from the same ratio for a second aliquot of the same cell sample treated with ligand. In the following examples, the first calculation will be used, unless the signal is described as the ‘ligand-induced BRET ratio’. Alternatively, and particularly when illustrating z-factor data (Zhang et al. (1999) J Biomol Screen 4, 67-73), the BRET signal observed between interacting proteins can be shown in conjunction with (as oppose to being subtracted by) the background BRET ratio to evaluate error associated with the BRET signal observed between interacting proteins and the error associated with the background BRET ratio independently. In this case, data are shown as ‘fluorescence/luminescence’ being the ratio of light emission through the ‘acceptor wavelength window’ over the 400-475 nm emission for a particular cell sample. Unless otherwise stated, BRET signals were measured in 96-well microplates.
# Referring now to FIG. 4, eBRET signals were measured from cells transiently co-expressing TRHR/Rluc and barr2/Venus with either pcDNA3, OxR2, CXCR2, HA-MC3R, HA-MC4R, D2LR or D2SR following the treatment of each with their respective ligands.
# Referring now to FIG. 5, eBRET signals were measured from cells transiently co-expressing TRHR/Rluc and EGFP/barr1 or EGFP/barr2 with either pcDNA3 or OXR2. […]
# [1] = TRHR/Rluc only (no OxR2) + EGFP/barr1 or EGFP/barr2, FIG. 5
"eBRET signal peak (HEK293, TRHR/Rluc + barr2/Venus + pcDNA3, ligand 10^−6M, 37 C, FIG. 4)","time to eBRET signal peak (HEK293, TRHR/Rluc + barr2/Venus + pcDNA3, ligand 10^−6M, FIG. 4)","dose-response Hill slope (TRHR/Rluc + barr2/Venus + pcDNA3, FIG. 10)",eBRET signal [1],"eBRET signal with EGFP/barr1R169E relative to EGFP/barr1 (TRHR/Rluc only (no OxR2), FIG. 8)","cumulative eBRET signal (TRHR/Rluc + EGFP/barr1, 0 μg OxR2 DNA/well, 10^−6M OxA, 83 mins, FIG. 16)",effect of OxA on TRH-induced eBRET signal [1],Compound,"eBRET signal (TRHR/Rluc only (no HA-OxR2), FIG. 7)","eBRET signal (TRHR/Rluc only (no OxR2) + EGFP/barr1 or EGFP/barr1R169E, FIG. 8)","eBRET signal (OxA added to cells lacking HA-OxR2, FIG. 7)"
greater than 0.17,Within the first minute,approximately 1,rapid stimulation of the eBRET signal,lower than that for EGFP/barr1,,,"NC(=O)[C@@H]1CCCN1C(=O)[C@H](Cc1cnc[nH]1)NC(=O)[C@@H]1CCC(=O)N1 [TRH, pGlu-His-Pro-NH2]",rapid increase in eBRET signal reaching a peak in the first few minutes,rapid increase in eBRET signal reaching a peak in the first few minutes,
,,,,,no signal was recorded,no difference,"OxA: orexin A; known orexin receptor modulator, used as IG3 ligand (modulator) (QPLPDCCRQKTCSCRLYELLHGAGNHAAGILTL; ends and bridges not checked; cysteine pairing not given here; UniProt O43612 34-66, looked up)",,,No increase in eBRET signal above baseline
